# Experimental data from patent US8030443B2, “Squamous cell carcinoma antigen-derived peptide binding to HLA-A24 molecule” (Kurume University, priority 2005, dated 2011).
# Tested on: peptide-specific IgG in sera of cancer patients and healthy donors
# Experiment: Measurement of anti-peptide IgG in plasma by LUMINEX multiplexed flow cytometric assay
# Assay type: binding, human
# Description: The levels of anti-peptide immunoglobulin G (IgG) were measured by the LUMINEX™ system (multiplexed flow cytometric assay) as previously reported (Komatsu N, Shichijo S, Nakagawa M, Itoh K. New multiplexed flow cytometric assay to measure anti-peptide antibody: a novel tool for monitoring immune responses to peptides used for immunization. Scand J Clin Lab Invest 2004; 64:1-11). In brief, plasma was incubated with 25 μl of peptide-coupled color-coded beads for 2 hr at room temperature on a plate shaker. After incubation, the mixture was washed with a vacuum manifold apparatus and incubated with 100 μl of biotinylated goat anti-human IgG (γ chain-specific)(BA-3080, Vector Laboratories, Burlingame, Calif., USA) for 1 h at room temperature. The plate was then washed, followed by the addition of 100 μl of streptavidin-PE (S-866, Molecular Probes, Eugene, Oreg., USA) into wells, and was incubated for 30 min at room temperature on a plate shaker. The bound beads were washed three times followed by the addition of 100 μl of Tween-PBS into each well. Fifty μl of sample was detected using the LUMINEX™ system (multiplexed flow cytometric assay). To confirm the specificity of IgG to a SCCA peptide, sample plasma was cultured in plates coated with a corresponding SCCA peptide, or with an irrelevant SCCA peptide. After the operation was repeated three times, the levels of the corresponding SCCA peptide-specific IgG in the resulting supernatant were determined by the LUMINEX™ system (multiplexed flow cytometric assay).
# These 9 SCCA-derived peptides were screened based on their ability to be recognized by IgG in cancer patients. Peptide-specific IgG was measured by a multiplexed flow cytometric assay (LUMINEX™ (multiplexed flow cytometric assay)). The plasma samples were derived from 35 uterine cervical SCC patients, 10 breast adenocarcinoma patients, 10 pancreatic adenocarcinoma patients, 10 gastric adenocarcinoma, and 6 colon adenocarcinoma patients. The level of fluorescence intensity was judged to be significant when exceeded 100 at an 1/100 dilution.
sequence,measurement,setting,value
"EFHCNHPFL (SCCA 362-370 peptide) [SCCA-derived peptide, position 362-370]",Total: healthy donors with significant peptide-reactive IgG / donors tested,"10 healthy donors, significant when fluorescence intensity exceeded 100 at 1/100 dilution",1/10
same,Total: cancer patients with significant peptide-reactive IgG / patients tested,"71 cancer patients, significant when fluorescence intensity exceeded 100 at 1/100 dilution",10/71
same,Fluorescence intesity,"serum of Breast Ca. patient #36, 1:100 dilution",10
same,Fluorescence intesity,"serum of Breast Ca. patient #37, 1:100 dilution",24
same,Fluorescence intesity,"serum of Breast Ca. patient #38, 1:100 dilution",8
same,Fluorescence intesity,"serum of Breast Ca. patient #39, 1:100 dilution",11
same,Fluorescence intesity,"serum of Breast Ca. patient #40, 1:100 dilution",7
same,Fluorescence intesity,"serum of Breast Ca. patient #41, 1:100 dilution",215
same,Fluorescence intesity,"serum of Breast Ca. patient #42, 1:100 dilution",19
same,Fluorescence intesity,"serum of Breast Ca. patient #43, 1:100 dilution",10
same,Fluorescence intesity,"serum of Breast Ca. patient #44, 1:100 dilution",0
same,Fluorescence intesity,"serum of Breast Ca. patient #45, 1:100 dilution",20
same,Fluorescence intesity,"serum of Colon Ca. patient #66, 1:100 dilution",0
same,Fluorescence intesity,"serum of Colon Ca. patient #67, 1:100 dilution",0
same,Fluorescence intesity,"serum of Colon Ca. patient #68, 1:100 dilution",0
same,Fluorescence intesity,"serum of Colon Ca. patient #69, 1:100 dilution",0
same,Fluorescence intesity,"serum of Colon Ca. patient #70, 1:100 dilution",1
same,Fluorescence intesity,"serum of Colon Ca. patient #71, 1:100 dilution",19
same,Fluorescence intesity,"serum of Gastric Ca. patient #56, 1:100 dilution",0
same,Fluorescence intesity,"serum of Gastric Ca. patient #57, 1:100 dilution",0
same,Fluorescence intesity,"serum of Gastric Ca. patient #58, 1:100 dilution",6
same,Fluorescence intesity,"serum of Gastric Ca. patient #59, 1:100 dilution",10
same,Fluorescence intesity,"serum of Gastric Ca. patient #60, 1:100 dilution",0
same,Fluorescence intesity,"serum of Gastric Ca. patient #61, 1:100 dilution",1
same,Fluorescence intesity,"serum of Gastric Ca. patient #62, 1:100 dilution",0
same,Fluorescence intesity,"serum of Gastric Ca. patient #63, 1:100 dilution",0
same,Fluorescence intesity,"serum of Gastric Ca. patient #64, 1:100 dilution",0
same,Fluorescence intesity,"serum of Gastric Ca. patient #65, 1:100 dilution",0
same,Fluorescence intesity,"serum of Healthy Donor #1, 1:100 dilution",0
same,Fluorescence intesity,"serum of Healthy Donor #2, 1:100 dilution",37
same,Fluorescence intesity,"serum of Healthy Donor #3, 1:100 dilution",0
same,Fluorescence intesity,"serum of Healthy Donor #4, 1:100 dilution",0
same,Fluorescence intesity,"serum of Healthy Donor #5, 1:100 dilution",0
same,Fluorescence intesity,"serum of Healthy Donor #6, 1:100 dilution",0
same,Fluorescence intesity,"serum of Healthy Donor #7, 1:100 dilution",0
same,Fluorescence intesity,"serum of Healthy Donor #8, 1:100 dilution",283
same,Fluorescence intesity,"serum of Healthy Donor #9, 1:100 dilution",29
same,Fluorescence intesity,"serum of Healthy Donor #10, 1:100 dilution",0
same,Fluorescence intesity,"serum of Pancreas Ca. patient #46, 1:100 dilution",0
same,Fluorescence intesity,"serum of Pancreas Ca. patient #47, 1:100 dilution",1
same,Fluorescence intesity,"serum of Pancreas Ca. patient #48, 1:100 dilution",339
same,Fluorescence intesity,"serum of Pancreas Ca. patient #49, 1:100 dilution",0
same,Fluorescence intesity,"serum of Pancreas Ca. patient #50, 1:100 dilution",0
same,Fluorescence intesity,"serum of Pancreas Ca. patient #51, 1:100 dilution",0
same,Fluorescence intesity,"serum of Pancreas Ca. patient #52, 1:100 dilution",104
same,Fluorescence intesity,"serum of Pancreas Ca. patient #53, 1:100 dilution",0
same,Fluorescence intesity,"serum of Pancreas Ca. patient #54, 1:100 dilution",6
same,Fluorescence intesity,"serum of Pancreas Ca. patient #55, 1:100 dilution",0
same,Fluorescence intesity,"serum of Uterine cervical Ca. patient #1, 1:100 dilution",0
same,Fluorescence intesity,"serum of Uterine cervical Ca. patient #2, 1:100 dilution",0
same,Fluorescence intesity,"serum of Uterine cervical Ca. patient #3, 1:100 dilution",0
same,Fluorescence intesity,"serum of Uterine cervical Ca. patient #4, 1:100 dilution",0
same,Fluorescence intesity,"serum of Uterine cervical Ca. patient #5, 1:100 dilution",3
same,Fluorescence intesity,"serum of Uterine cervical Ca. patient #6, 1:100 dilution",611
same,Fluorescence intesity,"serum of Uterine cervical Ca. patient #7, 1:100 dilution",11
same,Fluorescence intesity,"serum of Uterine cervical Ca. patient #8, 1:100 dilution",49
same,Fluorescence intesity,"serum of Uterine cervical Ca. patient #9, 1:100 dilution",90
same,Fluorescence intesity,"serum of Uterine cervical Ca. patient #10, 1:100 dilution",15
same,Fluorescence intesity,"serum of Uterine cervical Ca. patient #11, 1:100 dilution",28
same,Fluorescence intesity,"serum of Uterine cervical Ca. patient #12, 1:100 dilution",37
same,Fluorescence intesity,"serum of Uterine cervical Ca. patient #13, 1:100 dilution",25
same,Fluorescence intesity,"serum of Uterine cervical Ca. patient #14, 1:100 dilution",17
same,Fluorescence intesity,"serum of Uterine cervical Ca. patient #15, 1:100 dilution",106
same,Fluorescence intesity,"serum of Uterine cervical Ca. patient #16, 1:100 dilution",191
same,Fluorescence intesity,"serum of Uterine cervical Ca. patient #17, 1:100 dilution",56
same,Fluorescence intesity,"serum of Uterine cervical Ca. patient #18, 1:100 dilution",50
same,Fluorescence intesity,"serum of Uterine cervical Ca. patient #19, 1:100 dilution",48
same,Fluorescence intesity,"serum of Uterine cervical Ca. patient #20, 1:100 dilution",104
same,Fluorescence intesity,"serum of Uterine cervical Ca. patient #21, 1:100 dilution",22
same,Fluorescence intesity,"serum of Uterine cervical Ca. patient #22, 1:100 dilution",27
same,Fluorescence intesity,"serum of Uterine cervical Ca. patient #23, 1:100 dilution",56
same,Fluorescence intesity,"serum of Uterine cervical Ca. patient #24, 1:100 dilution",1234
same,Fluorescence intesity,"serum of Uterine cervical Ca. patient #25, 1:100 dilution",21
same,Fluorescence intesity,"serum of Uterine cervical Ca. patient #26, 1:100 dilution",83
same,Fluorescence intesity,"serum of Uterine cervical Ca. patient #27, 1:100 dilution",36
same,Fluorescence intesity,"serum of Uterine cervical Ca. patient #28, 1:100 dilution",153
same,Fluorescence intesity,"serum of Uterine cervical Ca. patient #29, 1:100 dilution",20
same,Fluorescence intesity,"serum of Uterine cervical Ca. patient #30, 1:100 dilution",35
same,Fluorescence intesity,"serum of Uterine cervical Ca. patient #31, 1:100 dilution",133
same,Fluorescence intesity,"serum of Uterine cervical Ca. patient #32, 1:100 dilution",23
same,Fluorescence intesity,"serum of Uterine cervical Ca. patient #33, 1:100 dilution",93
same,Fluorescence intesity,"serum of Uterine cervical Ca. patient #34, 1:100 dilution",16
same,Fluorescence intesity,"serum of Uterine cervical Ca. patient #35, 1:100 dilution",21
